The test system of one data set is KB 3-1 cells. Nature of the data set: MTT cytotoxicity assay, DOX-sensitive KB 3-1 cells. It is filed as cell-based. The settings on record: Homo sapiens. How it is done:
An MTT assay was performed to determine the cytotoxicity of DOX, WP 546, and WP 549 to KB 3-1 (DOX-sensitive) and KB V1 (DOX-resistant) cells. The assay was performed as follows:
Doxorubicin was obtained from the Hospital Pharmacy (Adriamycin, Adria Laboratories, Columbus, Ohio). KB 3-1 human carcinoma and KB V1 were obtained from Dr. Michael M. Gottesman at the National Cancer Institute. KB V1 cells have the MDR phenotype and express glycoprotein P-170 in their membrane (Akiyama et al., Somat. Cell. Mol. Genet., 11:117, 1985; Shen et al., J. Biol. Chem., 261:7762, 1986.). KB 3-1 and KB V1 cells were grown in monolayers in Dulbecco's modified Eagle's medium containing 10% fetal bovine serum. For KB V1 cells, vinblastine was added to the culture medium (final concentration 0.5 μg/ml).
(§1) In vitro drug cytotoxicites against KB 3-1 and KB V1 cells were assessed by using the MTT reduction assay, as previously reported (Green et al., J. Immunol. Methods., 70:257, 1984). The MTT dye was obtained from Sigma Chemical Company, St. Louis, Mo. Cells were plated in 96-well microassay culture plates (10^4 cells/well) and grown for 24 h at 37° C. in a 5% CO2 incubator. Drugs were then added to the wells to achieve a final drug concentration ranging from 0.1 to 50 μg/ml (eight wells were used for each different concentration). The same volume of 0.9% NaCl solution in water with 1% DMSO was added to control wells. Wells containing culture medium alone without cells were used as blanks. The plates were incubated at 37° C. in a 5% CO2 incubator for 1 h (KB cells). When incubation was complete, 15 μl of stock solution of MTT dye in 0.9% NaCl solution in water was added to each well to achieve a final dye concentration of 0.5 mg/ml. […] The optical density of each well was then measured with a microplate spectrophotometer at a wavelength of 600 nm. The percent cell viability was calculated by the following equation: [formula]
(§2) The percent cell viability values obtained were plotted against the drug concentrations used, and the ID50 was calculated from the curve. […]

The test system of the next data set is KB V1 cells. Briefly: MTT cytotoxicity assay, DOX-resistant (MDR) KB V1 cells. The settings on record: for IC50: Homo sapiens; for RI (ID50 KB V1/ID50 KB 3-1): KB V1 versus KB 3-1; for cytotoxicity (in words): KB V1 (MDR, DOX-resistant). The class given is cell-based, human. How it is done: The assay was performed as follows:
Doxorubicin was obtained from the Hospital Pharmacy (Adriamycin, Adria Laboratories, Columbus, Ohio). KB 3-1 human carcinoma and KB V1 were obtained from Dr. Michael M. Gottesman at the National Cancer Institute. […] KB 3-1 and KB V1 cells were grown in monolayers in Dulbecco's modified Eagle's medium containing 10% fetal bovine serum. For KB V1 cells, vinblastine was added to the culture medium (final concentration 0.5 μg/ml).
The MTT dye was obtained from Sigma Chemical Company, St. Louis, Mo. Cells were plated in 96-well microassay culture plates (10^4 cells/well) and grown for 24 h at 37° C. in a 5% CO2 incubator. Drugs were then added to the wells to achieve a final drug concentration ranging from 0.1 to 50 μg/ml (eight wells were used for each different concentration). The same volume of 0.9% NaCl solution in water with 1% DMSO was added to control wells. Wells containing culture medium alone without cells were used as blanks. The plates were incubated at 37° C. in a 5% CO2 incubator for 1 h (KB cells). When incubation was complete, 15 μl of stock solution of MTT dye in 0.9% NaCl solution in water was added to each well to achieve a final dye concentration of 0.5 mg/ml. The plate was incubated at 37° C. in a 5% CO2 incubator for 4 h. […] Complete solubilization was achieved by placing the plate in a mechanical shaker for 30 minutes at room temperature. The optical density of each well was then measured with a microplate spectrophotometer at a wavelength of 600 nm. The percent cell viability was calculated by the following equation: [formula]
(§3) The percent cell viability values obtained were plotted against the drug concentrations used, and the ID50 was calculated from the curve. Experiments were repeated at least three time.

Another data set concerns J774.2 cells. Briefly: Cytotoxicity against J774.2 cells. The class given is cell-based, murine. The settings on record: for IC50: Mus musculus.
The subject of the next data set is J7/A300 cells. Briefly: Cytotoxicity against AD 198-resistant J7/A300 cells. It is filed as cell-based, murine. The conditions noted are these: for RI J7/A300: J7/A300 versus J774.2; for IC50: Mus musculus; for cytotoxicity (in words): J7/A300, AD 198-resistant.
The subject of another data set is J7/40V cells. Nature of the data set: Cytotoxicity against vinblastine-resistant J7/40V cells. The class given is cell-based, murine. The conditions noted are these: for RI J7/40V: J7/40V versus J774.2; for IC50: Mus musculus; for cytotoxicity (in words): vinblastine-resistant.
For data set [1] the following is noted: versus same dose by bolus injections; cited from earlier work.
For data set [2] the following is noted: cited from earlier work.
The next data set concerns P388 (S) cells. Nature of the data set: MTT cytotoxicity assay, AD 198-sensitive P388 (S) cells. The class given is cell-based, murine. The settings on record: Mus musculus, ± S.E., read-out: ID50 (the source's name). Here is the method: as §1, with “mg/ml. The plate was incubated at 37° C. in a 5% CO2 incubator for 4 h.” for “mg/ml.”
as §2

In the next data set the test system is P388 (R) cells. Briefly: MTT cytotoxicity assay, AD 198-resistant P388 (R) cells. The class given is cell-based, murine. The settings on record: for IC50: Mus musculus, P388 (R), ± S.E., read-out: ID50 (the source's name); for RI: P388 (R) versus P388 (S); for cytotoxicity (in words): P388 AD 198-resistant. How it is done: In vitro drug cytotoxicites against KB 3-1 and KB V1 cells were assessed by using the MTT reduction assay, as previously reported (Green et al., J. Immunol. Methods., 70:257, 1984). The MTT dye was obtained from Sigma Chemical Company, St. Louis, Mo. Cells were plated in 96-well microassay culture plates (10^4 cells/well) and grown for 24 h at 37° C. in a 5% CO2 incubator. Drugs were then added to the wells to achieve a final drug concentration ranging from 0.1 to 50 μg/ml (eight wells were used for each different concentration). The same volume of 0.9% NaCl solution in water with 1% DMSO was added to control wells. Wells containing culture medium alone without cells were used as blanks. The plates were incubated at 37° C. in a 5% CO2 incubator for 1 h (KB cells). When incubation was complete, 15 μl of stock solution of MTT dye in 0.9% NaCl solution in water was added to each well to achieve a final dye concentration of 0.5 mg/ml. The plate was incubated at 37° C. in a 5% CO2 incubator for 4 h. Subsequently, 100 μl of medium was removed from each well from the upper ]K<id,KD layer, and 100 μl of DMSO was added to solubilize the MTT formazan. Complete solubilization was achieved by placing the plate in a mechanical shaker for 30 minutes at room temperature. The optical density of each well was then measured with a microplate spectrophotometer at a wavelength of 600 nm. The percent cell viability was calculated by the following equation: [formula]
as §3
An MTT assay to determine the cytotoxicity of WP 546 and WP 549 to AD 198-resistant {P 388 (R)} and AD 198-sensitive {P388 (S)} cells was performed in a manner similar to that described above.

Data set [3] deals with tumor cells resistant to doxorubicin, AD 198, and vinblastine. Briefly: Cytotoxicity against drug-resistant tumor cells (general statement). The class given is cell-based.
The mark [4] stands for this setting: KB 3-1 (S), MTT, 1 h drug incubation, read-out: ID50 (the source's name).
The mark [5] stands for this setting: KB V1 (R), MTT, 1 h drug incubation, read-out: ID50 (the source's name).
[6] abbreviates: J774.2, read-out: ID50 (the source's name).
Setting [7] is: J7/A300, read-out: ID50 (the source's name).
Where [8] appears, read: J7/40V, read-out: ID50 (the source's name).

In brackets after ≈: the same amount, converted by molar mass. Entries after “also recorded” stand apart in the source; their conditions may differ. Like-named read-outs stand apart in the source and are kept apart here.

Consider `COc1cccc2c1C(=O)c1c(O)c3c(c(O)c1C2=O)C[C@@](O)(C(=O)CO)C[C@@H]3O[C@H]1C[C@H](N)[C@H](O)[C@H](C)O1` [Doxorubicin, doxorubicin], for which the IC50 in the data set with KB 3-1 cells (KB 3-1, 1 h, read-out: ID50) stood at 1.1 µg/mL (≈ 2.02 µM); in the data set with KB V1 cells (KB-V1, 1 h, read-out: ID50) it was 64 µg/mL (≈ 118 µM); with J774.2 cells (J774.2, read-out: ID50) it was 24 nM; with J7/A300 cells (read-out: ID50), 586 nM; with J7/40V cells (read-out: ID50), 755 nM. Besides, the “RI (ID50 KB V1/ID50 KB 3-1)” value in the data set with KB V1 cells is recorded as 58.2. Besides, the “RI J7/A300” value in the data set on J7/A300 cells was 24. Further, the “RI J7/40V” value in the data set with J7/40V cells worked out at 31. The “efficacy of 96-hr continuous infusion” value in data set [1] is “as effective as”. In data set [1], the “toxicity of 96-hr continuous infusion” value was “much less toxic”. For the same compound, in [2] (in vivo), the adverse systemic effects entry was “acute myelosuppression, cumulative cardiotoxicity, and gastrointestinal toxicity”. Moreover, in data set [2] (related to total dose), the cardiomyopathy result is on record as “unusual cardiomyopathy, the occurrence of which is related to the total dose of the drug; it is often irreversible”.

Take `COc1cccc2c1C(=O)c1c(O)c3c(c(O)c1C2=O)C[C@@](O)(C(=O)CO)C[C@@H]3O[C@H]1C[C@H](OCc2ccccc2)[C@H](O)[C@H](C)O1` [WP 546, 7-O-(3-O-benzyl-2,6-dideoxy-α-L-lyxo-hexopyranosyl)adriamycinone]: the IC50 with KB 3-1 cells (setting [4]) worked out at 4.6 µg/mL (≈ 7.25 µM); with KB V1 cells (setting [5]), 4.1 µg/mL (≈ 6.46 µM); with P388 (S) cells, 920 ± 360 nM; in the data set with P388 (R) cells, 690 ± 230 nM; with J774.2 cells (setting [6]), 1100 nM; in the data set on J7/A300 cells (setting [7]), 2430 nM. The IC50 with J7/40V cells (setting [8]) is 2350 nM. Also, the “cytotoxicity (in words)” value in the data set with KB V1 cells was “unexpectedly more cytotoxic against MDR cells than against parent cells; also recorded: ability to kill DOX-resistant and vinblastine resistant cells; also recorded: shown to kill KB V1 cells”; in the data set on P388 (R) cells, “more cytotoxic towards cells selected for the resistance than that of a wild type; also recorded: demonstrated cytotoxicity”; in the data set with J774.2 cells (J774.2) it was “shown to kill KB V1 cells and J774.2 cells”; in the data set with J7/A300 cells, “demonstrated cytotoxicity”; in the data set with J7/40V cells (J7/40V), “shown to have cytotoxic effects”; in [3], “surprisingly broad cytotoxicity; also recorded: unexpected cytotoxic activity; also recorded: very high cytotoxicity”. Further, in data set [3] (listed as 3'-O-benzyl-doxorubicin), the “cytotoxicity (in words)” value was “surprisingly similar in DOX-sensitive and DOX-resistant cell lines”. In addition, the “RI (ID50 KB V1/ID50 KB 3-1)” value in the data set on KB V1 cells amounted to 0.9. Moreover, in the data set on P388 (R) cells, the RI came to 0.8. For the same compound, in the data set on J7/A300 cells, the “RI J7/A300” value is 2.2. Besides, the “RI J7/40V” value in the data set with J7/40V cells was found to be 2.2.

Consider `CCCCC(=O)OCC(=O)[C@]1(O)Cc2c(O)c3c(c(O)c2[C@@H](O[C@H]2C[C@H](OCc4ccccc4)[C@H](O)[C@H](C)O2)C1)C(=O)c1c(OC)cccc1C3=O` [WP 549, 7-O-(3-O-benzyl-2,6-dideoxy-α-L-lyxo-hexopyranosyl)-14-O-valeroyl-adriamycinone], for which the IC50 came out at 8.9 µg/mL (≈ 12.4 µM) in the data set on KB 3-1 cells (setting [4]); 4.7 µg/mL (≈ 6.54 µM) in the data set on KB V1 cells (setting [5]); 1410 ± 230 nM in the data set with P388 (S) cells; 730 ± 80 nM with P388 (R) cells; 1430 nM with J774.2 cells (setting [6]); 2770 nM in the data set on J7/A300 cells (setting [7]). In addition, the IC50 in the data set with J7/40V cells (setting [8]) was 3150 nM. Further, the “cytotoxicity (in words)” value in the data set with KB V1 cells is “unexpectedly more cytotoxic against MDR cells than against parent cells; also recorded: ability to kill DOX-resistant and vinblastine resistant cells; also recorded: shown to kill KB V1 cells”; with P388 (R) cells it was “more cytotoxic towards cells selected for the resistance than that of a wild type; also recorded: demonstrated cytotoxicity”; in the data set with J774.2 cells (J774.2), “shown to kill KB V1 cells and J774.2 cells”; in the data set with J7/A300 cells, “demonstrated cytotoxicity”; in the data set on J7/40V cells (J7/40V), “shown to have cytotoxic effects”; in data set [3], “surprisingly broad cytotoxicity; also recorded: unexpected cytotoxic activity; also recorded: very high cytotoxicity”. Moreover, the “RI (ID50 KB V1/ID50 KB 3-1)” value with KB V1 cells worked out at 0.5. The RI in the data set with P388 (R) cells is listed as 0.5. Also, the “RI J7/A300” value in the data set on J7/A300 cells is reported as 1.9. In addition, the “RI J7/40V” value with J7/40V cells is on record as 2.3.

In the case of `COc1cccc2c1C(=O)c1c(O)c3c(c(O)c1C2=O)C[C@@](O)(C(C)=O)C[C@@H]3O[C@H]1C[C@H](N)[C@H](O)[C@H](C)O1` [daunorubicin], the cardiomyopathy result in [2] (in vivo) was “unusual cardiomyopathy, the occurrence of which is related to the total dose of the drug; it is often irreversible”.

As for `CC[C@]1(O)C[C@@H]2CN(CCc3c([nH]c4ccccc34)[C@@](C(=O)OC)(c3cc4c(cc3OC)N(C)[C@H]3[C@@](O)(C(=O)OC)[C@H](OC(C)=O)[C@]5(CC)C=CCN6CC[C@]43[C@@H]65)C2)C1` [vinblastine, reference compound], in the data set with J7/40V cells (J7/40V selected for resistance to vinblastine), the “resistance of cell line to the selecting drug” value is 120 -fold.
